Data: the CheMixHub drug solubility set

Assay: xn = mol fraction of the nth substance listed, in the solute-free solvent

OCCN(CCO)c1nc(N2CCCCC2)c2nc(N(CCO)CCO)nc(N3CCCCC3)c2n1 + CO + O
solubility (g/100 g solution)
Details	293.15 K	298.15 K	303.15 K	308.15 K	313.15 K	318.15 K	323.15 K	328.15 K
x2 = 0.3	0.0465	0.0712	0.121	0.178	0.281	0.39	0.543	0.757
x2 = 0.4	0.197	0.312	0.48	0.676	1.01	1.48	2.27	3.26
x2 = 0.5	0.513	0.826	1.16	1.64	2.54	3.82	6.13	9.01
x2 = 0.6	1.12	1.6	2.21	3.21	4.77	7.29	11.6	18
x2 = 0.7	1.8	2.43	3.45	5.11	7.41	11.5	17.4	26.3
x2 = 0.8	2.43	3.31	4.57	6.51	9.53	14.1	20.9	29.2
x2 = 0.9	2.81	3.85	5.46	7.53	10.9	15.8	22.7	31.9

Cc1[nH]c(=O)c(C#N)cc1-c1ccncc1 + CC(C)O + O
solubility (g/100 g solution)
Details	278.15 K	283.15 K	288.15 K	293.15 K	298.15 K	303.15 K	308.15 K	313.15 K	318.15 K	323.15 K
x2 = 0.03225	0.00105	0.00126	0.00148	0.00173	0.00202	0.00231	0.00261	0.00296	0.00333	0.00376
x2 = 0.06974	0.00174	0.00206	0.00243	0.00283	0.0033	0.00374	0.00423	0.00479	0.00537	0.00604
x2 = 0.1139	0.00266	0.00311	0.00366	0.00429	0.00498	0.00565	0.00635	0.00712	0.00801	0.00906
x2 = 0.1666	0.00378	0.00445	0.00523	0.00608	0.00705	0.00798	0.009	0.0102	0.0114	0.0128
x2 = 0.2307	0.00502	0.00587	0.00684	0.00797	0.00927	0.0105	0.0119	0.0135	0.0151	0.017
x2 = 0.3103	0.00629	0.00741	0.00871	0.0101	0.0118	0.0133	0.015	0.0171	0.019	0.0214
x2 = 0.4117	0.00743	0.00875	0.0102	0.0119	0.0137	0.0155	0.0178	0.02	0.0224	0.0256
x2 = 0.5454	0.0083	0.00978	0.0115	0.0135	0.0155	0.0177	0.02	0.0226	0.0256	0.0291
x2 = 0.7297	0.00873	0.0102	0.012	0.0141	0.0163	0.0188	0.0214	0.0243	0.0274	0.0314

Nc1[nH]c(=O)ncc1F + CN(C)C=O + CC(C)O
solubility (g/100 g solution)
Details	283.15 K	288.15 K	293.15 K	298.15 K	303.15 K	308.15 K	313.15 K	318.15 K	323.15 K
x2 = 0.0837	0.0457	0.057	0.0702	0.0871	0.105	0.126	0.149	0.174	0.203
x2 = 0.1705	0.0578	0.0715	0.0887	0.107	0.128	0.152	0.178	0.209	0.245
x2 = 0.2605	0.0731	0.0892	0.107	0.13	0.155	0.183	0.214	0.248	0.285
x2 = 0.354	0.0896	0.107	0.127	0.153	0.182	0.214	0.249	0.288	0.333
x2 = 0.4512	0.106	0.126	0.151	0.18	0.213	0.248	0.284	0.327	0.376
x2 = 0.5522	0.121	0.143	0.17	0.203	0.236	0.273	0.315	0.36	0.413
x2 = 0.6573	0.137	0.16	0.189	0.221	0.258	0.298	0.342	0.391	0.447
x2 = 0.7668	0.153	0.18	0.209	0.242	0.281	0.322	0.369	0.426	0.484
x2 = 0.8809	0.173	0.201	0.23	0.267	0.306	0.351	0.402	0.46	0.524

Nc1ccc(Oc2ccc(N)cc2)cc1 + CN(C)C=O + CCO
solubility (g/100 g solution)
Details	293.15 K	298.15 K	303.15 K	308.15 K	313.15 K	318.15 K	323.15 K	328.15 K	333.15 K
x2 = 0.06545	0.79	0.873	1.16	1.2	1.53	1.69	2.06	2.54	2.99
x2 = 0.1361	1.59	1.71	2.14	2.18	2.57	2.99	3.53	4.13	4.74
x2 = 0.2127	2.76	2.98	3.46	3.65	4.23	4.88	5.56	6.41	7.1
x2 = 0.2959	4.51	4.86	5.41	5.88	6.29	7.33	8.28	9.19	10.3
x2 = 0.3866	6.9	7.38	7.95	8.83	9.66	10.6	11.6	12.8	14.1
x2 = 0.486	9.91	10.6	11.3	12.2	13.3	14.3	15.5	16.9	18.1
x2 = 0.5952	13.6	14.3	15.1	16.1	17.2	18.5	19.6	21	22.4
x2 = 0.716	17.6	18.4	19.2	20.3	21.5	22.6	23.9	25.2	26.7
x2 = 0.8501	21.8	22.5	23.2	24	25.6	26.7	27.9	29.2	30.6

COc1cc2c(cc1OC)-c1cc3ccc(OC)c(OC)c3c[n+]1CC2.[Cl-] + CCO + O
solubility (g/100 g solution)
Details	283.15 K	288.15 K	293.15 K	298.15 K	303.15 K	308.15 K	313.15 K	318.15 K	323.15 K	328.15 K
x2 = 0.04165	1.22	1.49	1.87	2.33	2.87	3.46	4.17	4.96	5.87	6.89
x2 = 0.08908	1.26	1.54	1.93	2.4	2.94	3.56	4.28	5.08	6.01	7.05
x2 = 0.1436	1.34	1.62	2.03	2.52	3.14	3.77	4.52	5.34	6.28	7.33
x2 = 0.2068	1.44	1.74	2.17	2.68	3.27	3.94	4.73	5.59	6.6	7.72
x2 = 0.2812	1.57	1.89	2.37	2.96	3.58	4.32	5.15	6.02	7.08	8.21
x2 = 0.3698	1.72	2.06	2.54	3.13	3.8	4.55	5.44	6.39	7.51	8.77
x2 = 0.4772	1.88	2.23	2.75	3.38	4.16	5.02	5.95	6.91	8.09	9.31
x2 = 0.6101	2.02	2.39	2.94	3.6	4.33	5.16	6.14	7.16	8.39	9.76
x2 = 0.7788	2.11	2.48	3.08	3.79	4.53	5.41	6.4	7.47	8.65	9.96

O=C(O)CC(O)C(=O)O (stereo not drawn) + C1CCOC1 + CC#N
solubility (g/100 g solution)
Details	278.15 K	283.15 K	288.15 K	293.15 K	298.15 K	303.15 K	308.15 K	313.15 K	318.15 K	323.15 K
x2 = 0.1246	19.5	21.2	23.2	25.3	26.9	29.2	31.6	34.1	36.6	39.6
x2 = 0.1961	27.1	28.6	30.5	32.5	34.7	37.1	39.2	41.7	44.3	47
x2 = 0.2751	29.8	32	34	36	38	40.2	42.3	45	47.2	49.9
x2 = 0.3628	33.2	34.9	36.9	38.9	40.9	43	45.1	47.7	49.9	52.5
x2 = 0.4606	34.6	36	37.8	39.7	41.5	43.5	45.9	48.1	50.5	53.4
x2 = 0.5705	35.7	37.3	39.1	41.1	43.2	45.5	47.8	50.2	52.9	55.6
x2 = 0.6949	37.8	39	40.6	42.3	44.3	46	48.3	50.3	52.7	55.5

CCC(C)n1ncn(-c2ccc(N3CCN(c4ccc(OCC5COC(Cn6cncn6)(c6ccc(Cl)cc6Cl)O5)cc4)CC3)cc2)c1=O (stereo not drawn) + ClC(Cl)Cl + CCO
solubility (g/100 g solution)
Details	x2 = 0.04158	x2 = 0.08894	x2 = 0.1434	x2 = 0.2065	x2 = 0.2808	x2 = 0.3694	x2 = 0.4767	x2 = 0.6097	x2 = 0.7785
288.15 K	0.0692	0.133	0.268	0.494	1.05	3.89	10.7	19.4	26.1
293.15 K	0.0835	0.16	0.32	0.565	1.38	4.82	12	20.6	26.9
298.15 K	0.0993	0.189	0.375	0.644	1.77	6	13.4	21.8	27.8
303.15 K	0.117	0.225	0.442	0.733	2.24	7.3	14.8	23	28.7
308.15 K	0.138	0.267	0.516	0.832	2.82	8.83	16.4	24.2	29.5
